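Five compound concentrations were applied to cells in 96-well plates for 48 hours; endpoints were derived by simple linear interpolation of the resulting dose-response curve. GI50: concentration for 50% inhibition of growth. The concentration for full growth arrest is given as TGI.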
Key:
Assay in all cases: NCI anticancer screen, dose series, 48 h
[1] = tested on: A549 NSCLC
[2] = tested on: HCT-116 colon
[3] = tested on: HOP-62 NSCLC
[4] = tested on: KM12 colon
[5] = tested on: MALME-3M melanoma
[6] = tested on: OVCAR-3 ovarian
[7] = tested on: OVCAR-4 ovarian
[8] = tested on: RXF 393 renal
[9] = tested on: SNB-75 CNS
[10] = tested on: TK-10 renal

SMILES | TGI [1] [µM] | TGI [2] [µM] | TGI [3] [µM] | TGI [4] [µM] | TGI [5] [µM] | TGI [6] [µM] | TGI [7] [µM] | TGI [8] [µM] | TGI [9] [µM] | TGI [10] [µM] | GI50 [1] [µM] | GI50 [2] [µM] | GI50 [3] [µM] | GI50 [4] [µM] | GI50 [5] [µM] | GI50 [6] [µM] | GI50 [7] [µM] | GI50 [8] [µM] | GI50 [9] [µM] | GI50 [10] [µM]
CC1(C)CCCC2(C)C3C(O)CC2(C)C(O)C31 (stereo not given) | > 100 | > 100 | > 100 | > 100 | > 100 | > 100 | > 100 | > 100 | > 100 | > 100 | – | – | – | – | – | – | – | – | – | –
CN(C)C(=O)OCc1nc2c(N3CCOCC3)nc(-c3ccccc3)nc2n1C | 3.75 | 0.616 | 4.46 | 3.32 | 2.96 | 0.433 | 2.16 | 1.68 | 2.37 | 2.81 | 1.56 | 0.204 | 1.72 | 1.54 | 1.57 | 0.203 | 0.79 | 0.566 | 1.1 | 1.46
Cc1ccc(S(=O)(=O)NC(=O)NCCc2ccccc2)cc1 | > 100 | > 100 | > 100 | > 100 | > 100 | > 100 | > 100 | > 100 | > 100 | > 100 | – | – | – | – | – | – | – | – | – | –
Cc1c(Cl)c(=O)oc2cc(OC/C=C3\CCC(=O)O3)ccc12 | > 100 | 28.3 | 66.1 | 75.3 | 32.2 | 33.1 | 36.1 | > 100 | 37.5 | 32.6 | 58.2 | 13.9 | 23.6 | 26.1 | 12.9 | 14.7 | 15.2 | 23.5 | 17.9 | 13.8
C[N+](C)(C)CC1CCC(C[N+](C)(C)C)C1=O (stereo not given) | 45.8 | 3.44 | 36.1 | 16.3 | 2.28 | 5.32 | 10.8 | 3.71 | 3.51 | 6.39 | – | – | – | – | – | – | – | – | – | –
COC(=O)CCC(=O)N1C/C(=C\c2ccccc2)C(=O)/C(=C/c2ccccc2)C1 | 12.3 | 1.42 | 28.7 | 2.84 | 4.62 | 5.01 | 4.92 | 3.74 | 5.27 | 13.2 | – | – | – | – | – | – | – | – | – | –
COc1ccc2c3c([nH]c(=O)c2c1C(=O)O)-c1ccccc1CC3 | > 100 | > 100 | > 100 | > 100 | > 100 | > 100 | > 100 | > 100 | > 100 | > 100 | – | – | – | – | – | – | – | – | – | –
O=C(O)c1cc2ccccc2c2c3c(ccc12)OCO3 | 621 | > 1000 | 697 | 702 | 361 | 468 | 808 | 342 | 265 | 616 | 197 | 262 | 176 | 219 | 140 | 183 | 170 | 146 | 77.8 | 231
Nc1nonc1-c1nc2ccccc2n1Cc1ccc(F)cc1 | > 100 | > 100 | > 100 | > 100 | > 100 | > 100 | > 100 | > 100 | 9.52 | > 100 | 5.69 | 4.81 | 14.6 | 3.71 | 5.09 | 5.8 | > 100 | 4.42 | 1.41 | 6.78
CC(C)c1ccc(C2NC(=S)NC3=C2c2ccccc2C3=O)cc1 (stereo not given) | > 62.4 | > 58.4 | > 57.1 | > 58.7 | > 62.9 | > 56.7 | 53.8 | 23.9 | 36.7 | > 57.1 | – | – | – | – | – | – | – | – | – | –
CC1=CC(C)(c2c[nH]c3ccccc23)CC(C)(C)c2c1[nH]c1ccccc21 (stereo not given) | 28.3 | 26.7 | 79.7 | > 100 | 35 | 28.6 | 27.7 | 26.6 | 67.4 | > 100 | – | – | – | – | – | – | – | – | – | –
O=C1/C(=C/c2ccc3c(c2)OCCO3)CCC/C1=C\c1ccc2c(c1)OCCO2 | > 100 | 7.85 | 92.1 | 62.1 | > 100 | 44.6 | 61 | 53.5 | 66.9 | > 100 | – | – | – | – | – | – | – | – | – | –
C1OC1CN1CCN(CC2CO2)CC1 (stereo not given) | > 100 | > 100 | 69.7 | > 100 | > 100 | > 100 | > 100 | > 100 | > 100 | > 100 | – | – | – | – | – | – | – | – | – | –
O=C(O)[C@@H]1OCCOCCO[C@@H](C(=O)O)[C@H](C(=O)O)OCCOCCO[C@H]1C(=O)O | > 100 | > 100 | > 100 | > 100 | > 100 | > 100 | > 100 | > 24.9 | > 100 | > 100 | – | – | – | – | – | – | – | – | – | –
Cc1ccc(S(=O)(=O)OCC#CCOS(=O)(=O)c2ccc(C)cc2)cc1 | 19.8 | 5.47 | 5.69 | 4.6 | 4.1 | 3.36 | 13.6 | 5.21 | 4.38 | 6.27 | 4.85 | 2.08 | 2.35 | 2.08 | 1.97 | 1.85 | 4.81 | 2.22 | 1.76 | 2.37
O=C(CSCC(=O)N/N=C/c1ccccc1O)N/N=C\c1ccccc1O | > 100 | > 100 | > 100 | > 100 | 25.2 | > 100 | > 100 | > 100 | > 100 | > 100 | 3.2 | 1.06 | 1.31 | 2.42 | 2.29 | 4.76 | 1.72 | 2.46 | 67.7 | 1.83

Reference: PubChem BioAssay (NCI)
